Assay results reported in patent US8476270B2, “Dihydropyrido[4,3-b]pyrazine-3-ones as modulators of toll-like receptors” (Gilead Sciences, Inc., priority 2009, dated 2013).

Tested on: human Peripheral Blood Mononuclear Cell (PMBC)
Test: PBMC assay: cytokine (IFN-alpha) stimulation at 24 hours
Assay type: cell-based
Conditions: 24 hours incubation, IFN-alpha in supernatant (Luminex)
Experimental: PBMC Assay Protocol Assays were conducted to determine cytokine stimulation at 24 hours from human Peripheral Blood Mononuclear Cell (PMBC) using the compounds of the present invention. The assays were run in duplicate, with 8-point, half-log dilution curves. The compounds of the present invention were diluted from 10 mM DMSO solution. Cell supernatants are assayed directly for IFNa and 1:10 dilution for TNFa. The assays were performed in a similar fashion as described in Bioorg. Med. Chem. Lett. 16, 4559, (2006). Specifically, cryo-preserved PBMCs were thawed and seeded 96 well plates with 750,000 cells/well in 190 μL/well cell media. The PBMCs were then incubated for 1 hour at 37° C. at 5% CO2. Then, the compounds of the present invention were added in 10 μL cell media at 8 point, half-log dilution titration. The plates were incubated at 37° C. and 5% CO2 for 24 hours and then spinned at 1200 rpm for 10 min, which was followed by collecting supernatant and storing the same at −80° C. Cytokine secretion was assayed with Luminex and Upstate multi-plex kits, using a Luminex analysis instrument. IFN ECmax value for a compound was the concentration at which the compound stimulated maximum IFN-a production as determined using the assay method above.

Row | Structure (SMILES) | MEC = minimum concentration for induction of IFN-alpha = 3-fold over background
1 | CCCCOc1cc2c([nH]c(=O)c(=O)n2Cc2ccc(-c3ccc(CN4CCCC4)cc3)cc2)c(N)n1 [G] | c (c: 10 nM-99 nM)
2 | COCCOc1cc2c(c(N)n1)NC(=O)CN2Cc1ccc(CN2CCCC2)cc1 [C] | a (a: = 1 nM)
3 | CCCCOc1cc2c(c(N)n1)NC(=O)CN2Cc1cccc(CN2CCCC2)c1 [A] | d (d: 100 nM-1000 nM)
4 | CCCCOc1cc2c([nH]c(=O)c(=O)n2Cc2ccc(-c3cccc(CN4CCCC4)c3)cc2)c(N)n1 [F] | c (c: 10 nM-99 nM)
5 | COCCOc1nc(N)c2c(c1Cl)N(Cc1ccc(CN3CCCC3)cc1)CC(=O)N2 [D] | e (e: = 1000 nM)
6 | CCCCOc1cc2c([nH]c(=O)c(=O)n2Cc2ccc(CN3CCCC3)cc2)c(N)n1 [E] | b (b: 1 nM-9 nM)
7 | CCCCOc1cc2c(c(N)n1)NC(=O)CN2Cc1ccc(CN2CCCC2)cc1 [B] | c (c: 10 nM-99 nM)
